The values that follow come from patent publication US8748480B2, “Methods for treating opioid tolerance” (priority 2005, dated 2014).

pIC50: −log10 of the molar value.

This experiment concerns the target T1, Gβγ (protein interaction site of Gβ) (Rattus norvegicus, UniProt P54311).
T1 construct: made in house; host or cells: Sf9 insect cells (baculovirus), co-expressed with BirA and (His)6-Gαi1
In words: Phage ELISA: small molecules competing with SIGK-phage binding to immobilized biotinylated Gβγ. The settings on record: read-out: IC50. On the procedure: Exemplary compounds of the present invention were initially selected from a computational screen to identify ligands that bind to the novel protein interaction site of Gβ. The computational screen involved using SYBYL molecular modeling software to model the protein interaction site of Gβ as determined in the X-ray structure disclosed herein. The computational docking screen was performed with the National Cancer Institute 1900 compound library wherein the compounds were tested for docking to the protein interaction site of Gβ using FLEXX™ (Tripos, Inc., St. Louis, Mo.) for docking and CSCORE™ (Tripos, Inc.) to evaluate the energetics and fitness of the docked structure. Algorithm-dependent lists of compounds, predicted to interact with the protein interaction site of Gβ and the structural model of the interaction, were generated. Selected compounds were subsequently analyzed in the phage ELISA binding assay disclosed herein to assess whether these compounds could bind to the protein interaction site of Gβ and interfere with protein interactions at this surface.
Wild-type Gβ1 and Gβ1 mutants were made in the baculovirus vector PDW464 which encodes a biotinylation site at a lysine upstream of the amino terminus of Gβ1 (Goubaeva, et al. (2003) supra). Mutants were generated by overlap extension PCR using standard protocols. The wild-type and mutant Gβ1 constructs consisted of a 20 amino acid biotin acceptor peptide (BAP) sequence fused in-frame with the amino-terminus of rat Gβ1 subunit. When coexpressed with biotin holoenzyme synthetase (BirA) in Sf9 cells, the Gβ1 subunit becomes covalently biotinylated in vivo at the Specific lysine acceptor residue in the BAP.
Phage ELISA assays used to assess peptide binding to wild-type and mutant b-βγ were performed according to standard methods (Smrcka and Scott (2002) Methods Enzymol. 344:557-76). Briefly, 1 μg streptavidin was immobilized in the well of a […] overnight at 4° C. The wells were blocked with 100 μL of 2% bovine serum albumin (BSA) in Tris-buffered saline (TBS) for 1 hour at 4° C. followed by three washes of 1×TBS/0.5% TWEEN®. […] The wells were washed, followed by the addition of 1×10^6 to 1×10^10 phage particles and incubated at 4° C. for 3 hours. The wells were then washed six times with TBS/0.5% TWEEN® followed by addition of 40 μL of 1:5000 dilution of anti-M13 antibody (Pharmacia, Uppsala, Sweden) and incubated at room temperature for 1 hour. The wells were washed, followed by the addition of 40 μL of (2,2′-Azino-bis(3-ethylbenzthiazoline)-6-sulfonic acid (ABTS) and the colorimetric reaction was monitored at 405 nm. Non-specific binding was subtracted for each reading.
A phage ELISA assay was used to determine whether small molecules identified in the computational screen could interact with the Gβγ protein interaction surface. […] The screen was based on a reduction in the optical density (OD) of wells containing Gβγ subunits and phage. […] Three background wells contained no βγ subunits.
As disclosed herein, biotinylated Gβγ subunits were immobilized on the surface of a 96-well plate coated with streptavidin, phage displaying Gβγ-binding peptides were subsequently added and binding in the presence and absence of test compounds detected with an anti-phage antibody.

The pIC50 is −log10 of the IC50, conventionally taken in molar units.

Take `O=C1c2ccccc2C(=O)c2c(Nc3cc4c5c(ccc6c7ccc8c9c(cc(Nc%10cccc%11c%10C(=O)c%10ccccc%10C%11=O)c(c3c56)c97)-c3ccccc3C8=O)C(=O)c3ccccc3-4)cccc21` [NSC23128]: the pIC50 is 4.80.

For `CCc1cc2c(c3ccc(C(=O)CBr)cc13)CCCC2` [NSC30820], the pIC50 was 7.00.

With `Nc1c(S(=O)(=O)O)cc(Nc2cccc(S(N)(=O)=O)c2)c2c1C(=O)c1ccccc1C2=O` [NSC117079], the pIC50 was 4.37.

On to `Nc1ccc(-c2ccc(Nc3cc(S(=O)(=O)O)c(N)c4c3C(=O)c3ccccc3C4=O)cc2)c(S(=O)(=O)O)c1` [NSC125910], for which the pIC50 is 4.17.
